Laboratory results as given in PMC7198493 (Nature Communications, 2020).
Substitutions are numbered along the chain they refer to.

Key:
Assay type in all cases: binding
[1] = target: T1, olfactory marker protein (OMP) (Mus musculus, UniProt Q64288, G126E); test: BRET from mutant Rluc-OMP to 8NBD-cAMP
T1 construct: Rluc-OMP fusion, G126E mutant
T1 sequence (Q64288 2-163 G126E): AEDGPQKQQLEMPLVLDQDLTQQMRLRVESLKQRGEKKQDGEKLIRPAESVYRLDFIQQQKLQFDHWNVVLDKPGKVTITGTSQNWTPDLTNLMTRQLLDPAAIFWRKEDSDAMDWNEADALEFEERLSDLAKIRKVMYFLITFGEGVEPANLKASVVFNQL

[2] = target: T2, olfactory marker protein (OMP) (Mus musculus, UniProt Q64288); test: BRET from Rluc-OMP to fluorescent 8NBD-cAMP, dose-response (EC50 taken as apparent Kd)
T2 construct: Rluc-OMP fusion, wild type
T2 sequence (Q64288 2-163): T1 sequence (Q64288 2-163 G126E) with E125G

[3] = target: T2, olfactory marker protein (OMP); test: competitive BRET displacement of 8NBD-cAMP from Rluc-OMP in HEK293T lysate

Kd [2] [µM]	IC50 [3] [µM]	SMILES	BRET from mutant Rluc-OMP to 8NBD-cAMP [1]
~1.9		Nc1ncnc2c1nc(SCCNc1ccc([N+](=O)[O-])c3nonc13)n2[C@@H]1O[C@@H]2COP(=O)(O)O[C@H]2[C@H]1O [8NBD-cAMP]	pocket A-mutated Rluc-OMP^G126E retained the low-affinity interaction, whereas the pocket B mutants lost their interaction with 8NBD-cAMP
	11	Nc1nc2c(ncn2[C@@H]2O[C@@H]3COP(=O)(O)O[C@H]3[C@H]2O)c(=O)[nH]1 [cGMP]	
